According to ChEMBL document CHEMBL1201862, “PubChem BioAssay data set” (2004):
Active and inactive are the calls of the source. Cut-off read from the data, not from the text of the source, for most assays here: actives have a measured EC50 and inactives only a lower limit.

Legend:
[1] = target: T1, Cytochrome P450 1A2 (Homo sapiens, UniProt P05177);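 note: PubChem cytochrome P450 panel assay, CYP1A2 panel member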
T1 sequence (P05177 whole entry): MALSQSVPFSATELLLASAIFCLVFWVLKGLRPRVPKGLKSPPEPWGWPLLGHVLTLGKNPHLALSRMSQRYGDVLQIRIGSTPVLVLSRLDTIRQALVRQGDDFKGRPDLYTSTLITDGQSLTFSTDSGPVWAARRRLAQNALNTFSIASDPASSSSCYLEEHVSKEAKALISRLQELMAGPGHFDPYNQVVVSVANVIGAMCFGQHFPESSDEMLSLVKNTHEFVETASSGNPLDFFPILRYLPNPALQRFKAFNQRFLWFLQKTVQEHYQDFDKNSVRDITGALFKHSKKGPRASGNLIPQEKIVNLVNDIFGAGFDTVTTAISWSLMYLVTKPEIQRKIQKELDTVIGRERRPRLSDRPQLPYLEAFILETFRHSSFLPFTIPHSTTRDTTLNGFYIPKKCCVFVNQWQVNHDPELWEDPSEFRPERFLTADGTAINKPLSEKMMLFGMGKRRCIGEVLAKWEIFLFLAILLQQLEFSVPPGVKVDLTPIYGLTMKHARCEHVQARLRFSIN

[2] = target: T1, Cytochrome P450 1A2; remark: listed apart in the source
[3] = target: Alkaline phosphatase, placental type (Homo sapiens, UniProt P05187); assay: PLAP enzyme inhibitors, confirmation, biochemical, luminescence (AID 1512); type: functional
[4] = target: T2, Rac GTPase-activating protein 1 (Homo sapiens, UniProt Q9H0H5); assay: MgcRacGAP GTPase-activating activity inhibitors, confirmation, biochemical, ADP Hunter fluorescence, primary and confirmatory (AID 624330); type: functional
T2 sequence (Q9H0H5 whole entry): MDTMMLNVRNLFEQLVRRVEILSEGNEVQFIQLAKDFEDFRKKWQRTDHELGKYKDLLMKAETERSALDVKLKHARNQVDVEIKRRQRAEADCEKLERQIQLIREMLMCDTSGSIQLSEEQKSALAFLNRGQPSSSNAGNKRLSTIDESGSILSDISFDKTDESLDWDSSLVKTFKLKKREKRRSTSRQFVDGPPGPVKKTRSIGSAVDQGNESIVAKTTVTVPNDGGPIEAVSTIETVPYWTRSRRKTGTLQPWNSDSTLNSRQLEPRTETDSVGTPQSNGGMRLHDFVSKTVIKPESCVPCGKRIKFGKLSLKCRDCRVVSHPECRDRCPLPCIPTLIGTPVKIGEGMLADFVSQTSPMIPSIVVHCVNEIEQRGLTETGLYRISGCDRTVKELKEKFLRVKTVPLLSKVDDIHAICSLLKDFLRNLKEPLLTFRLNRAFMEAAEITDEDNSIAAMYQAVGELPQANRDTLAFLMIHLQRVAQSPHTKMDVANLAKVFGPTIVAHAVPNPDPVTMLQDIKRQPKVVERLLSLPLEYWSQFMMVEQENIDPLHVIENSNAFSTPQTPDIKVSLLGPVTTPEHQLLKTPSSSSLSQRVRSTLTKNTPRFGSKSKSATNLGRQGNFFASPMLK

[5] = target: T3, Alkaline phosphatase, tissue-nonspecific isozyme (Homo sapiens, UniProt P05186); assay: human TNAP enzyme inhibitors, SAR follow-up, biochemical, luminescent, dose response (AID 1056)
T3 sequence (P05186 whole entry): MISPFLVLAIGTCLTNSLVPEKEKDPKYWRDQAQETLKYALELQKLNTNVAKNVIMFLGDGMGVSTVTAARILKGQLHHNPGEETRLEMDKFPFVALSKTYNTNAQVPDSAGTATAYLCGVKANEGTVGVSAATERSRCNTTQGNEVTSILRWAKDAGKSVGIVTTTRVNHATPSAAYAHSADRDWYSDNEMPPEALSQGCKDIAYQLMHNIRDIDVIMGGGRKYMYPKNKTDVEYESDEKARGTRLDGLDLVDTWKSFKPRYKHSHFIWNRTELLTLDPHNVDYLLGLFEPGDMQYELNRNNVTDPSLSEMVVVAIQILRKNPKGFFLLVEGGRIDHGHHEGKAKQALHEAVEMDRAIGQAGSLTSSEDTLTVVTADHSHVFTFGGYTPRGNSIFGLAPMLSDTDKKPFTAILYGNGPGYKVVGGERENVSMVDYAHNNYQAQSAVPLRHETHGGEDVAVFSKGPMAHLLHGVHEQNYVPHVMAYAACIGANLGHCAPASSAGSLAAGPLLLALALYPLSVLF

[6] = cytotoxicity toward DRD oncogenic fibroblasts, dose response, cell-based, non-viral oncogenic, luminescence (AID 1934); type: functional; conditions: Homo sapiens
[7] = tested on: BJ; assay: cytotoxicity toward BJ-TERT-LT-ST fibroblasts, dose response, cell-based, RAS-independent, luminescence (AID 1935); type: functional; conditions: Homo sapiens;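 note: BJ fibroblasts immortalized with TERT plus LT and ST oncogenes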
[8] = tested on: BJ; assay: cells; type: functional, cell-based; conditions: Homo sapiens
[9] = cytotoxicity in HEK-293T cells, dose response, cytotoxicity control for TCR NF-kB inhibitor project, luminescence, T-cell screen hits (AID 489026); type: functional, cell-based;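 note: cells exposed to compound about 14 hours before the viability readout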
[10] = tested on: BJ; assay: cytotoxicity toward BJ-TERT fibroblasts, dose response, cell-based, RAS-independent, luminescence (AID 1933); type: functional; conditions: Homo sapiens
[11] = inhibitors of intracellular T. cruzi replication, confirmation, NIH3T3 host cells, beta-gal luminescence (AID 2044); type: functional, cell-based;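 note: intracellular parasites grown in NIH/3T3 mouse fibroblasts as host cells; luminescent beta-galactosidase reporter signal from transgenic T. cruzi replicating inside host cells; inhibitors lower the luminescence signal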
[12] = Luminescence Cell-Based Dose Response HTS to Identify Inhibitors of 5'UTR Stem-Loop Driven Prion Protein mRNA Translation in H4 Neuroglioblastoma Cells. [Related pubchem assays: 1827 (Project Summary), 1813 (Primary HTS)]; type: functional
[13] = target: T4, Replicative DNA helicase DnaB (Mycobacterium tuberculosis, UniProt P9WMR3); assay: DnaB intein splicing inhibitors, dose response, biochemical, cell-free fluorescence (AID 449749); type: functional
T4 sequence (P9WMR3 whole entry): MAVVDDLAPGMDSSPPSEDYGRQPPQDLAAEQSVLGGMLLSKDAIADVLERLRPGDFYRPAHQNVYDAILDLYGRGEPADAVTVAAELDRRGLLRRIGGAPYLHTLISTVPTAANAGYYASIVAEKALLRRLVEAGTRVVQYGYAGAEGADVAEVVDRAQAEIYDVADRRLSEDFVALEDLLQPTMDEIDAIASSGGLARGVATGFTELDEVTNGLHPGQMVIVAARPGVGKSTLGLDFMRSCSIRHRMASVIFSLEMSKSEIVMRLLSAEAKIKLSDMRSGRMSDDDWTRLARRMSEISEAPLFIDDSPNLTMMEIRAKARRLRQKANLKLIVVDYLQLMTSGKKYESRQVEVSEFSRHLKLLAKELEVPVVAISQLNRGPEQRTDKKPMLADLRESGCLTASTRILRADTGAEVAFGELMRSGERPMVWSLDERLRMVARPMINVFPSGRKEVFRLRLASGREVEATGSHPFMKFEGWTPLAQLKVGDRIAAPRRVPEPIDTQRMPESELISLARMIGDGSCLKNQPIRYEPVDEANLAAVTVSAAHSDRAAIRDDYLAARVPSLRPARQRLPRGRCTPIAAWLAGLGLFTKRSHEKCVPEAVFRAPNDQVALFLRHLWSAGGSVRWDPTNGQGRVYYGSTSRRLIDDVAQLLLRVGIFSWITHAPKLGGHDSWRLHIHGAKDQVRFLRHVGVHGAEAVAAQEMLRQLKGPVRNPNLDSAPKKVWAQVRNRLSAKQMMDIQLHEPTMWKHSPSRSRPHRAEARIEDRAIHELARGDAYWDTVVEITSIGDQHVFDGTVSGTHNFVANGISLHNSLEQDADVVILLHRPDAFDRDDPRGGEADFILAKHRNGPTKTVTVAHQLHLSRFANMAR

[14] = Intein inhibitors as potential Tuberculosis drugs, a cytotoxicity screen. [Related pubchem assays (depositor defined):AID2221, AID2223, AID434968, AID435010, AID449749, AID449750, AID489010]; type: functional
[15] = inhibitors of firefly luciferase expression or activity, dose response, H4 neuroglioma cells, luminescence (AID 1990); type: functional, cell-based
[16] = cytotoxicity in HEK-293T cells, dose response, cytotoxicity control for BCR NF-kB inhibitor project, luminescence, B-cell screen hits (AID 489021); type: functional, cell-based;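 note: HEK-293T cells carrying an NF-kB luciferase reporter; cells exposed to compound for about 14 hours before viability readout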
[17] = cytotoxicity toward NIH3T3 fibroblasts, dose response, counter-screen, cell-based, ATP luminescence, mouse fibroblasts (AID 2010); type: functional;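 note: cells exposed to compound for about 90 hours before reading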
[18] = tested on: HEK293; assay: inhibitors of LMP1-driven NF-kB reporter, dose response, cell-based, HEK293, luciferase, cherry-pick (AID 588343); type: functional; conditions: Homo sapiens
[19] = target: T5, Protein RecA (Mycobacterium tuberculosis, UniProt P9WHJ3); assay: Fluorescence Cell-Free Homogeneous Dose Retest to Identify Inhibitors of RecA-Intein Splicing Activity. [Related pubchem assays (depositor defined):AID2097, AID2223, AID489010, AID492950]; type: functional
T5 sequence (P9WHJ3 whole entry): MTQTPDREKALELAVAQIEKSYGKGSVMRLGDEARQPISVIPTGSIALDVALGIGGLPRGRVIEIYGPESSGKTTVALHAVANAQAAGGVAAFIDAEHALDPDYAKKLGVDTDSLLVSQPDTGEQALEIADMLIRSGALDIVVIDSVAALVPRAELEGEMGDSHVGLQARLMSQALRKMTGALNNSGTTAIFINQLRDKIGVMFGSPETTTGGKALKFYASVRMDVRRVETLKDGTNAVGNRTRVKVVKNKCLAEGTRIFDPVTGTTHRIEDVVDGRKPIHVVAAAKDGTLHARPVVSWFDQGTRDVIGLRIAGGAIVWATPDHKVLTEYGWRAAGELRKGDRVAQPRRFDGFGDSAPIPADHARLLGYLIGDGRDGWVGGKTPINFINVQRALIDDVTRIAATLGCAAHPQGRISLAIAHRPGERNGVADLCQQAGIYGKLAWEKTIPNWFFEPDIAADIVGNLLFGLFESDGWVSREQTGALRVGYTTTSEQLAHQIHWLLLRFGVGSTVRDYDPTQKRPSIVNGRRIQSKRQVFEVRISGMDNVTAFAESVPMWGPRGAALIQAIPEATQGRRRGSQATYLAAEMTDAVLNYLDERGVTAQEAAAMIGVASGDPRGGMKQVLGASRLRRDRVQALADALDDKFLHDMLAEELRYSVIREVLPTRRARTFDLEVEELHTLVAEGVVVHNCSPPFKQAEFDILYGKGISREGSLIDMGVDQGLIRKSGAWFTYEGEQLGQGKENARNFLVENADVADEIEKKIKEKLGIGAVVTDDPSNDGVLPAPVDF

[20] = inhibitors of SNCA 5'UTR-driven reporter translation, confirmation, H4 neuroglioma cells, luminescence (AID 1988); type: functional, cell-based
[21] = NIH-3T3 fibroblast cytotoxicity, dose response, cytotoxicity control, cell-based, fluorescence, Alamar Blue, secondary assay (AID 2327); type: functional;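 note: NIH-3T3 mouse fibroblasts cultured with fluconazole at 8 µg/mL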
[22] = target: T6, Heat shock factor protein 1 (Mus musculus, UniProt P38532); assay: inhibition of MG132-induced HSE-luciferase signal, confirmation, cell-based, NIH3T3, luminescence, dose retest (AID 2382); type: functional;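 note: NIH3T3 fibroblasts with HSF1-driven luciferase reporter stressed by proteasome inhibitor MG132; luminescence from HSF1-driven luciferase expression after 8 hours of MG132 stress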
T6 sequence (P38532 whole entry): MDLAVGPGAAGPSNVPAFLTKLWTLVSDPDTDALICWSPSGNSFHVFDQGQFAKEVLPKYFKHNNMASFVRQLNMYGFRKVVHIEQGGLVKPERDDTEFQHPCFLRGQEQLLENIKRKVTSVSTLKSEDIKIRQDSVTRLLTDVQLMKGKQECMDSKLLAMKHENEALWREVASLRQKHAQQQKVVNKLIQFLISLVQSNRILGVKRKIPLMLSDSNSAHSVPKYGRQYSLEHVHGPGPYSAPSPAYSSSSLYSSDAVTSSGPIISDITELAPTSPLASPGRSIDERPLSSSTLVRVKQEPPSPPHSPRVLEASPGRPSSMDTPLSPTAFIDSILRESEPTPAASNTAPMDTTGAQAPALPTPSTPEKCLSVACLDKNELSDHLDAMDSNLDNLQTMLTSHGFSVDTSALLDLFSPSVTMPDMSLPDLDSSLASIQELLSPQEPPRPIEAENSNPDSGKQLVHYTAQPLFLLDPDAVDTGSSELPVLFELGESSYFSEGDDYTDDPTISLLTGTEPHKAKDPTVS
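Throughout, for CC50: cells exposed to compound for 72 hours before luminescence readout.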

Alkaline phosphatase, placental type, sequence (P05187 whole entry): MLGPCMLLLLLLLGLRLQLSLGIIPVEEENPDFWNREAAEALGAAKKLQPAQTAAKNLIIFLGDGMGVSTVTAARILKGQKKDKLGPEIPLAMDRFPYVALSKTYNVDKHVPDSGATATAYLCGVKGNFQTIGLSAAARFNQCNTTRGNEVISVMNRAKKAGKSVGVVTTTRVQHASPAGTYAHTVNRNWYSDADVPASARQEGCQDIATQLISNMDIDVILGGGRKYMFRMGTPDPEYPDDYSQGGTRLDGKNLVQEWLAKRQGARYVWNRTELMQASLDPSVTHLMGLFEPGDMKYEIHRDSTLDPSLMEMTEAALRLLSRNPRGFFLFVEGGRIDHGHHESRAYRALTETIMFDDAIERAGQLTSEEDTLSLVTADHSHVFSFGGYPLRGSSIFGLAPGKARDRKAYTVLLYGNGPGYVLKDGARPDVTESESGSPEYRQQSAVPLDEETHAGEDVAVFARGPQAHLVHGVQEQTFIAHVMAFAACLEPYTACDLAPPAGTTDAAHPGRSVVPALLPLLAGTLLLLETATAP

## c1cncc([C@@H]2CCCCN2)c1 [ANABASINE]
[1]
  AC50: inconclusive
[2]
  AC50: 5.01 µM (inconclusive)

## C=CCn1c(SCC(=O)c2ccc(O)c(O)c2)nnc1-c1cccc(Cl)c1
[3]
  IC50: 6.62 µM (active)
[4]
  IC50: 79.5 µM (active)
[5]
  IC50: 20.7 µM (active)

## O=C(Cc1ccc(-c2ccccc2)cc1)NCc1ccccc1
[6]
  EC50: 0.489 µM (active)
[7]
  EC50: 0.279 µM (inconclusive)
[8]
  EC50: 13.6 µM (inconclusive)
[9]
  IC50: > 80 µM (inactive)
[10]
  EC50: 0.385 µM (active)

## O=C(CCl)N(c1ccc(Cl)cc1)c1c[nH]c2ccccc12
[11]
  EC50: 0.412 µM (active)
[12]
  EC50: 15.5 µM (active)
[13]
  AC50: 2.46 µM (active)
[14]
  CC50: 0.86 µM (active)
[15]
  EC50: 13.2 µM (active)
[16]
  IC50: 15 µM (active)
[17]
  EC50: < 6 µM (inconclusive)
[18]
  AC50: 12.5 µM (active)
[19]
  EC50: 0.195 µM (active)
[20]
  EC50: 8.46 µM (active)
[21]
  EC50: 4.07 µM (inconclusive)
[22]
  EC50: 2.72 µM (active)
